Several values for one entry are separate records, joined by “and”; a condition that tells them apart may be missing. Equal values may be shown once.
What was measured:
[1] = Multidrug-resistant reversal activity using P388/VMDRC.04 cells (a subline of P388 murine leukemia cells expressing human recombinant human P-glycoprotein) in the presence of 10 nM vincristine
[2] = Evaluated for cytotoxicity using P388/VMDRC.04 cells (a subline of P388 murine leukemia cells expressing human recombinant human P-glycoprotein) in the absence of 10 nM vincristine
[3] = as above; remark: listed apart in the source

Compound | IC50 [1] | IC50 [2] [µM] | IC50 [3] [µM]
CCCCCCC[C@H]1OC(=O)C[C@H](OCOC)[C@H](Cc2ccccc2)N(C)C(=O)[C@H](C(C)C)OC(=O)[C@H]1C | 5.5 µM and 5.4 µM | 41.5 | 
COCO[C@H]1CC(=O)O[C@H](C)[C@H](C)C(=O)OCC(=O)N(C)[C@H]1Cc1ccccc1 | 42.7 µM | > 100 | 
CCCCCCC[C@@H]1CC(=O)O[C@@H](C(C)C)C(=O)N(C)[C@@H](Cc2ccccc2)[C@H](O)CC(=O)O1 |  | 24 | 6.2
CCCCCCC[C@@H]1CC(=O)O[C@@H](C(C)C)C(=O)N(C)[C@@H](Cc2ccccc2)[C@H](OCOC)CC(=O)O1 |  | 34.4 | 6
CCCCCCC[C@H]1OC(=O)C[C@@H](O)[C@H](Cc2ccccc2)N(C)C(=O)COC(=O)[C@H]1C |  | 22.5 | 5.8
CCCC[C@H]1OC(=O)C[C@H](O)[C@H](Cc2ccccc2)N(C)C(=O)COC(=O)[C@H]1C | 18.1 µM | > 80 | 
CC(C)[C@@H]1OC(=O)[C@@H](C)COC(=O)C[C@@H](O)[C@H](Cc2ccccc2)N(C)C1=O |  |  | 21.9
CCCCCCC[C@H]1OC(=O)C[C@H](O)[C@H](Cc2ccccc2)N(C)C(=O)[C@H](C(C)C)OC(=O)[C@H]1C | 5.7 µM | 42.2 | 
CCCCCCC[C@H]1OC(=O)CC[C@H](Cc2ccccc2)N(C)C(=O)[C@H](C(C)C)OC(=O)[C@H]1C |  | 33.7 | 6
CCCCCCC[C@H]1OC(=O)C[C@H](OCOC)[C@H](Cc2ccccc2)N(C)C(=O)C(C)(C)OC(=O)[C@H]1C | 5.6 µM | 20 | 
COCO[C@@H]1CC(=O)OC[C@H](C)C(=O)O[C@@H](C(C)C)C(=O)N(C)[C@H]1Cc1ccccc1 |  | > 100 | 10.4
COCO[C@H](CC(=O)OC)[C@H](Cc1ccccc1)N(C)C(=O)OCc1ccccc1 | 14.9 µM | > 86 | 
CCCCCCC[C@H]1OC(=O)C[C@@H](O)[C@H](Cc2ccccc2)N(C)C(=O)[C@H](C)OC(=O)[C@H]1C | 6.2 µM | 27.1 | 
COC(=O)C[C@@H](O)[C@H](Cc1ccccc1)N(C)C(=O)OCc1ccccc1 |  | > 89 | 17.1
CCCCCCC[C@H]1OC(=O)C[C@@H](OCOC)[C@H](Cc2ccccc2)N(C)C(=O)COC(=O)[C@H]1C |  | 15.1 | 2.3
CC(C)[C@@H]1OC(=O)[C@@H](C)[C@@H](C)OC(=O)C[C@@H](O)[C@H](Cc2ccccc2)N(C)C1=O |  | > 100 | 15
CCCCCCC[C@H]1OC(=O)C[C@H](O)[C@H](Cc2ccccc2)N(C)C(=O)C(C)(C)OC(=O)[C@H]1C | 4.3 µM | 28.4 | 
CCCCCCC[C@H]1OC(=O)C[C@@H](OCOC)[C@H](Cc2ccccc2)N(C)C(=O)[C@H](C(C)C)OC(=O)[C@H]1C |  |  | 6.1
C[C@@H]1C(=O)OCC(=O)N(C)[C@@H](Cc2ccccc2)[C@@H](O)CC(=O)O[C@@H]1C | > 100 µM | > 100 | 
COCO[C@@H]1CC(=O)O[C@H](C)[C@H](C)C(=O)O[C@@H](C(C)C)C(=O)N(C)[C@H]1Cc1ccccc1 |  | > 75 | 7.5
CCCCCCC[C@@H](O)[C@H](C)C(=O)O[C@H](C(=O)OC)C(C)C | 16 µM | > 83 | 
CCCC[C@H]1OC(=O)C[C@H](OCOC)[C@H](Cc2ccccc2)N(C)C(=O)COC(=O)[C@H]1C |  |  | 11.7
CCCCCCC[C@H]1OC(=O)C[C@@H](OCOC)[C@H](Cc2ccccc2)N(C)C(=O)[C@H](C)OC(=O)[C@H]1C | 5.9 µM | 19.3 | 
CCCCCCC[C@H]1OC(=O)C[C@@H](O)[C@H](Cc2ccccc2)N(C)C(=O)[C@H](C(C)C)OC(=O)[C@H]1C [HAPALOSIN] | 4.8 µM | 14.8 | 
